Experiments:
[1] = biological target: T1, human NPC1L1 (Homo sapiens, UniProt Q9UHC9); test: [3H]AS binding to hNPC1L1/MDCKII-Flp cells; conditions: FIG. 7D, read-out: Ki inhibition of [3H]AS binding
T1 construct: expressed in transfected cells
T1 sequence (Q9UHC9 22-1359): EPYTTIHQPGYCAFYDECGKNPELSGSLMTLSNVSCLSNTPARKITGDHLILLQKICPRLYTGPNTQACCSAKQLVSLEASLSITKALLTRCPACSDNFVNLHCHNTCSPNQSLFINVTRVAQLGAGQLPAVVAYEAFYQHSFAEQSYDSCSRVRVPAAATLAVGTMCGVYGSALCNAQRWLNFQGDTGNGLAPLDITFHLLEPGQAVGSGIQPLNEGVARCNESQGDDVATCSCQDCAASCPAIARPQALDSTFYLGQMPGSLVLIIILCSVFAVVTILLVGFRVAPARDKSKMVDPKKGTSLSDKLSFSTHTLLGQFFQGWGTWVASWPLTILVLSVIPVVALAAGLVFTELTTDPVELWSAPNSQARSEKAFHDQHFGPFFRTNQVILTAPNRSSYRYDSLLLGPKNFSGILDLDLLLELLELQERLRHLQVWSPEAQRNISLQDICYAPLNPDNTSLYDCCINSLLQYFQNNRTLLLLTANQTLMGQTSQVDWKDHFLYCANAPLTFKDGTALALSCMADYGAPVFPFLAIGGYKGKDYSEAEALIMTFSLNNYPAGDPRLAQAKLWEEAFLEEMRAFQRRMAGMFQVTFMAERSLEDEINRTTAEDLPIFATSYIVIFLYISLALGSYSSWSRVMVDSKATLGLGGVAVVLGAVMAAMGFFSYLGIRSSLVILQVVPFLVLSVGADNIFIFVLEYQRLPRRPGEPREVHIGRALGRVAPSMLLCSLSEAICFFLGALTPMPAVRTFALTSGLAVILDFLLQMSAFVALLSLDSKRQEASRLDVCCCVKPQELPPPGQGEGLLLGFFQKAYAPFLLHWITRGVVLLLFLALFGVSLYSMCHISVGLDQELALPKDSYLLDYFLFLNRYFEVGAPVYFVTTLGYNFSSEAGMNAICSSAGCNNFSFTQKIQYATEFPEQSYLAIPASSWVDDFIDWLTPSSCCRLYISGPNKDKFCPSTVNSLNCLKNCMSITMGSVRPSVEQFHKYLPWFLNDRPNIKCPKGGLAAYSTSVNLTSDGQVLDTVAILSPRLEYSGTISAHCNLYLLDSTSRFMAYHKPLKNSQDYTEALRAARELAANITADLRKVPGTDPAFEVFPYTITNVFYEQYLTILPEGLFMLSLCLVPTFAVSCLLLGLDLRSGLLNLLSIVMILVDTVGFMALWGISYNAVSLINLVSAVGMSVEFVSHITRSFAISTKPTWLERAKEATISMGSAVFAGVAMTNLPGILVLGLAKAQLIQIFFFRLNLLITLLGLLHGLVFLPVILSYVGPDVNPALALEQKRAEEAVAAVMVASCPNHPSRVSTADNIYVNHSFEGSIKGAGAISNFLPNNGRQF
Description: rNPC1L1/HEK293 and TsA201 cells were seeded at a density of 10,000 cells per well in 96-well poly-D-lysine coated plates and cells were allowed to attach for approximately 18 h at 37° C. TsA201 cells were subsequently transfected with dog NPC1L1/pcDNA5/FRT according to the manufacturer's instructions (Roche) and incubated for 3 days at 37° C. MDCKII-derived, LLC-PKI, HepG2, or CaCo-2 cells were seeded at a density of 25,000 cells per well in 96-well tissue culture treated plates, and cells were allowed to attach and differentiate for approximately 72 h at 37° C., except for CaCo-2 cells where differentiation took approximately 14 days at 37° C. […] Duplicate samples were averaged for each experimental point. […] Dissociation kinetics were determined by addition of 100 μM EZE-gluc, and incubating for different periods of time. Nonspecific binding was defined in the presence of 100 μM EZE-gluc. At the end of the incubation period, cells were washed twice with 200 μl of pre-warmed DMEM to separate bound from free ligand, 1% SDS was added to the wells followed by 5 ml of Scintillant, and radioactivity associated with cells was determined using a β-counter. […] Thereafter, plates were placed on ice and cells were washed twice with ice-cold PBS, followed by ice-cold acid wash with DMEM, pH 3.5, for 1, 5 or 15 minutes. […] For Transwell experiments, MDCKII cells were seeded at 200,000 cells/well in a 24-well plate and incubated for 3 days at 37° C. […] Thereafter, both apical and basolateral compartments were washed three times with PBS, and the Transwell filter was cut out and its associated radioactivity determined using afi-counter. Data from saturation, competition and ligand dissociation experiments were analyzed as described in the literature; see, Priest, et al., 2004 Biochemistry 43:9866-9876; Knaus et al., 1995 Biochemistry 34:13627-13634. The association rate, k1, was determined by employing the pseudo-first-order rate equation k1=kobs([LR]e/[L][LR]max)) where [LR]max is the concentration of the complex at equilibrium, [L] is the concentration of ligand, [LR]max is the total receptor concentration, kobs is the slope of the pseudo-first order plot, ln([LR]e/([LR]e−[LR]t)) versus time, and [LR]t is the receptor-ligand complex at one given time point t.
(§1) To validate MDCKII cells as an appropriate surrogate system for monitoring NPC1L1-dependent processes, we evaluated their ability to perform EZE-sensitive cholesterol flux using a similar protocol to that recently reported. This assay makes use of the ability of βmCD to deplete membrane-bound cholesterol. […]
To further characterize the [^3H] cholesterol influx process into MDCK cells, the potency of EZE-like compound PS for inhibiting [^3H] cholesterol uptake was determined.

[2] = system: MDCKII-Flp cells; test: [3H]cholesterol flux into MDCKII-Flp cells; type: cell-based, dog; conditions: 10 μM PS, 5.5% βmCD pre-treatment
Description: Flux assays were performed essentially as described by Yu et al., 2006 J Biol. Chem. 281:6616-6624. Briefly, cell growth medium was completely aspirated and replaced with 200 μl of 5% LPDS containing the appropriate concentration of compound and incubated at 37° C./3 h in a 5% CO2 incubator. Media was subsequently aspirated from cells and cells were incubated in 200 μl of 0-5.5% βmCD dissolved and filtered through a […] filter at 37° C./45 minutes in a 5% CO2 incubator. Media was dumped from cells that were then washed twice with 125 μl of 5% LPDS before media was aspirated and [3H]cholesterol complexed to BSA in 5% LPDS was added; see Yu et al., 2006 J. Biol. Chem. 281:6616-6624. After 45 minute incubation, cells were washed twice with DMEM, thoroughly aspirated and then 1% SDS was added prior to extraction for scintillation counting.
as §1, with “cholesterol. Subsequent exposure of cells to [^3H] cholesterol provides a time-dependent flux of this substrate into the cells.” for “cholesterol.”

| SMILES | Ki [1] | blockade of [3H]cholesterol influx [2] |
| --- | --- | --- |
| O=C1[C@H](CC[C@H](O)c2ccc(F)cc2)[C@@H](c2ccc(O)cc2)N1c1ccc(F)cc1 [EZE, Ezetimibe] | 1300 nM | – |
| O=C(O)[C@H]1O[C@@H](Oc2ccc([C@@H]3[C@@H](CC[C@H](O)c4ccc(F)cc4)C(=O)N3c3ccc(F)cc3)cc2)[C@H](O)[C@@H](O)[C@@H]1O [EZE-gluc, ezetimibe glucuronide] | 209 nM | – |
| COC(=O)[C@H]1O[C@@H](Oc2ccc([C@@H]3[C@@H](CC[C@H](O)c4ccc(F)cc4)C(=O)N3c3ccc(C#CCNS(C)(=O)=O)cc3)cc2)[C@H](O)[C@@H](O)[C@@H]1O [PS, 4-[(2S,3R)-3-[(3S)-3-(4-fluorophenyl)-3-hydroxypropyl]-1-(4-{3-[(methylsulfonyl)amino]prop-1-yn-1-yl}phenyl)-4-oxoazetidin-2-yl]phenyl methyl-β-D-glucopyranosiduronate] | 5 nM | marginally blocked |

— patent publication US20100184094A1, “USE OF MDCK CELLS IN THE EVALUATION OF CHOLESTEROL MODULATORS” (priority 2007, published 2010)
